Assay results: patent US8158608B2, “Bioactive fraction from Zingier officinale and a process for the preparation thereof” (Council of Scientific and Industrial Research, priority 2006, dated 2012)

Assays:
[1] = Antioxidant (Aox) potency of identified phenolic acids; settings: for Contribution towards AOX potency of GRAOX: calculated contribution of GRAOX components
Method: The identified phenolic acids were examined for their ability to inhibit proton potassium ATPase activity and their antioxidant potency was also determined.

[2] = target: Proton Potassium ATPase (H+ K+ ATPase) (Ovis aries, UniProt A0ACI6QGK8); test: Proton potassium ATPase inhibition (PPI), inorganic phosphate release; assay type: biochemical, sheep; settings: calculated contribution of GRAOX components
Proton Potassium ATPase (H+ K+ ATPase), sequence (A0ACI6QGK8 entry or part of it): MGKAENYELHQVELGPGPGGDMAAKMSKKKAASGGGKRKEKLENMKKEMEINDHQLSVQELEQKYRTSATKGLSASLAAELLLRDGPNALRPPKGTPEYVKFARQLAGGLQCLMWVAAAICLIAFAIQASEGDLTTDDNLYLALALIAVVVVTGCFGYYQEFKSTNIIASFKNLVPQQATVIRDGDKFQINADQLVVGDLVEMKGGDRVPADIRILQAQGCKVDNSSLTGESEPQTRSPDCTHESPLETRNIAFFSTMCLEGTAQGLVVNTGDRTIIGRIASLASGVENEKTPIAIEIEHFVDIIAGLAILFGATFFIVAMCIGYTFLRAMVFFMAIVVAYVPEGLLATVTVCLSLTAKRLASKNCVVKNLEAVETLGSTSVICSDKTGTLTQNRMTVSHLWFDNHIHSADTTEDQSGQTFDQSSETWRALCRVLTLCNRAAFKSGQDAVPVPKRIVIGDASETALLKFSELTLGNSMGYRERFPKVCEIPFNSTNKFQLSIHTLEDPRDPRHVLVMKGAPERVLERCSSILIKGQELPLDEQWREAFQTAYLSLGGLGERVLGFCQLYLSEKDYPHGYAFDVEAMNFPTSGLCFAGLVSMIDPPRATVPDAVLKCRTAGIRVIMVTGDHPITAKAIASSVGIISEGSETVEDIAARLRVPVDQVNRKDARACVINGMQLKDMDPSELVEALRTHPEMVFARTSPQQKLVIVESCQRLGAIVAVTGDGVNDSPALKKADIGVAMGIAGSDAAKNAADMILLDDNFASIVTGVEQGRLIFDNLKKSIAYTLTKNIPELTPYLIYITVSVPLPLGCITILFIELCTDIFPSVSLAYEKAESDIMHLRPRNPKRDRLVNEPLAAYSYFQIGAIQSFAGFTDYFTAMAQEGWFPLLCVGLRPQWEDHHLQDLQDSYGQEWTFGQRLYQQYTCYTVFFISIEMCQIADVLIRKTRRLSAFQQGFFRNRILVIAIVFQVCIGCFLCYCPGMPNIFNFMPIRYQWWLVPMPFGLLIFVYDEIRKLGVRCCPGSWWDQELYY
Proton Potassium ATPase (H+ K+ ATPase), sequence (A0ACI6PNA7 entry or part of it, further chain): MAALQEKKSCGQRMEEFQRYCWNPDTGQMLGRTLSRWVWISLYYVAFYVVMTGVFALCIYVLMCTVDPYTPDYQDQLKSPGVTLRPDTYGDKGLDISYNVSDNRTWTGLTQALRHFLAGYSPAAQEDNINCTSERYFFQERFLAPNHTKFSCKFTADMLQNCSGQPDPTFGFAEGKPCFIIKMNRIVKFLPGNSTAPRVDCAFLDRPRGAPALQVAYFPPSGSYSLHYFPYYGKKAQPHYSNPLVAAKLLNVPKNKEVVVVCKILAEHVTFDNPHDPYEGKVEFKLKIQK
Method: Fresh sheep stomach was obtained from local slaughterhouse at Mysore. The mucosa of gastric fundus was cut off and the inner layer were scraped for parietal cells and homogenized in 16 mM Tris buffer (pH 7.4) containing 10% triton-x100 and centrifuged at 6000 rpm for 10 min. The supernatant (enzyme extract) was used for the assay. Protein content was determined according to Brad ford's method using BSA as standard.
Inorganic phosphate formed was measured spectrophotometrically at 400 nm. Enzyme activity was calculated as μ moles of Pi released/hr at various doses of GRAOX and GRPP. […] (FIG. 1, Table. 1)

Compound | Contribution towards AOX potency of GRAOX [1] | antioxidant potency fold higher than Cinnamic acid ([1]; ratio versus Cinnamic acid) | Contribution towards H+K+ ATPase activity of GRAOX [2]
Gallic acid/Tannic acid | ~92% | ~20 fold | ~6%
O=C(O)C=Cc1ccccc1 [Cinnamic acid] | ~2% |  | ~90%
